The subject of assay [1] is HDM-challenged BALB/c mice. The assay can be described thus: Lung histology scoring (H&E and PAS) after HDM challenge. The class given is in vivo. Particulars: synergy study, OBE 30 mg/kg, dexamethasone 0.5 mg/kg, alone or combined, score 1-5. As to the method: (§1) Male BALB/c mice (6-8 weeks old, average weight 25 g) were used in this study. All studies involving animals were in accordance with the ARRIVE guidelines for reporting experiments involving animals. All experimental protocols were approved by the Animal Welfare and Use of Laboratory Animals Committee in the Health Sciences Center, Kuwait University and were carried out in accordance with the EU Directive 2010/63/EU for animal experiments and the National Institutes of Health guide for the care and use of Laboratory animals (NIH Publications No. 8023, revised 1978). Animals were maintained under temperature-controlled conditions with an artificial 12-hour light/dark cycle and were allowed standard chow and water ad libitum.
(§2) Seven treatment groups (A-G, 9-15 animals per group) were established to determine whether OBE, if given prophylactically, inhibits the HDM-induced asthma phenotype. […]
(§3) Twenty-four hours after the last intranasal challenge, half of the animals were sacrificed with an overdose of halothane, bronchoalveolar lavage (BAL) was performed to obtain BAL fluid, and then the lungs were excised in preparation for histology, Western Blot (WB) and immunofluorescence (IF) studies. […] In the other half of the animals, airway responsiveness was measured.

Assay [2] deals with HDM-challenged BALB/c mice. Description: HDM-induced total and differential cell influx in BAL fluid. Format: in vivo. The settings on record: synergy study, OBE 30 mg/kg i.p., dexamethasone 0.5 mg/kg i.p., alone or combined, mean±SEM. As to the method: as §1, §2, §3
Assay [3] relates to HDM-challenged BALB/c mice. The assay can be described thus: HDM-induced airway hyperresponsiveness to methacholine (lung resistance). The settings on record: dexamethasone 3 mg/kg; 50 mg/ml of methacholine; HDM/vehicle 7.9±0.5. Format: in vivo. The method, then: Airway responsiveness was measured 24 h after the last HDM or PBS challenge, using a separate set of animals using the Buxco FinePointe series RC site (DSI, Wilmington, NC) as described previously in the literature. Briefly, mice were anesthetized with an intraperitoneal injection of ketamine/xylazine ([…]) cocktail and tracheotomized with a steel 18-gauge cannula. Mice were then mechanically ventilated at a rate of 150 breaths/minute and a tidal volume of 0.15 ml using a computerized small animal ventilator (FinePointe site). Following a 5 min period of stabilization and administration of PBS, airway resistance was measured by exposing mice to aerosolized methacholine (6.25-50.0 mg/ml, 5 μl per delivery) delivered by an aerogen nebulizer and reported as total lung resistance (RL) (cm H2O per ml/sec).
All numerical values were expressed as means±SEM. Total cell counts represent the number of cells/ml of BAL fluid. Differential cell counts represent the absolute number of each cell type/ml of BAL fluid. Absolute RL values were computed and were used as an index of airway responsiveness. For the histopathological assessment, a semi-quantitative 5-level lung pathology score was used to grade the degree of inflammation in each microscopic field at 20×. All data were initially assessed for normality. […]

A further assay concerns pERK1/2 (Thr202/Tyr204). The assay can be described thus: Immunofluorescence of lung sections, phosphorylation of ERK1/2. The class given is in vivo, mice. Particulars: synergy study; OBE 30 mg/kg, dexamethasone 0.5 mg/kg, alone or combined; HDM 319.0±10.4. As to the method: Lung tissues were processed as described above. Immunofluorescence was performed as previously described in the literature. In short, lung sections were incubated in a blocking solution (5% bovine serum albumin (BSA)+0.3% Triton X-100 in PBS) for 1 hour, and were subsequently incubated overnight at 4° C. with primary antibodies [p-EGFR (Tyr1068) (Rabbit; Cat. No. 3777S), pAKT (Ser 473) (Rabbit; Cat. No. 9271L) and pERK1/2 (Thr202/Tyr204) (Rabbit; Cat. No. 9101L) (1:25-1:800 dilution) or only 1% BSA (for negative control); Cell Signaling, USA], diluted in 1% blocking solution. Twenty-four hours later, the sections were washed and incubated with secondary antibody conjugated to Alexa Fluor 555 (Goat anti rabbit SFX kit; Life Technologies, USA, 1:400 dilution) for 2 hours at room temperature in the dark. Following several washes in PBS, the sections were stained with 4′,6-diamidino-2-phenylindole and mounted. Images were then captured on a ZEISS LSM 700 confocal microscope, and fluorescence intensity was estimated in defined fields using an Image J software package. […]
All numerical values were expressed as means±SEM. […] For the histopathological assessment, a semi-quantitative 5-level lung pathology score was used to grade the degree of inflammation in each microscopic field at 20×. All data were initially assessed for normality. […]

This is an account of results in US12673065B2, “Anti-inflammatory composition and method of treatment” (KUWAIT UNIVERSITY, priority 2020, dated 2026).

Structures are written as SMILES.

Turning to `C[C@@H]1C[C@H]2[C@@H]3CCC4=CC(=O)C=C[C@]4(C)[C@@]3(F)[C@@H](O)C[C@]2(C)[C@@]1(O)C(=O)CO` [dexamethasone], the mucous intensity score in assay [1] (HDM 4.2±0.2) was 3.0±0.2. In assay [1] (HDM 4.5±0.2), the cellular infiltration score is listed as 3.1±0.3. Also, the “eosinophils in BAL fluid” value in assay [2] (HDM/vehicle 3.7±0.3) is reported as 1.3±0.1 ×10^5. For the same compound, the “total cell count in BAL fluid” value in assay [2] (HDM/vehicle 6.4±0.5) was 4.3±0.2 ×10^5. The “lung resistance (RL)” value in assay [3] came to 5.2±0.8 cm H2O per ml/sec. Moreover, the “HDM-induced phosphorylation of ERK1/2 (pERK1/2 levels)” value in the assay with pERK1/2 (Thr202/Tyr204) was 264.8±4.9%.
